Assay results published in PMC6220272, “Scaffold-Hopping from Synthetic Drugs by Holistic Molecular Representation” (Scientific Reports, 2018).

How the values were obtained:
Assay type in all cases: cell-based
[1] = target: T1, human RXRα ligand binding domain (Gal4 hybrid receptor) (Homo sapiens, UniProt P19793); assay: Gal4 hybrid reporter gene assay RXRα; details: HEK293T cells, n ≥ 4, read-out: RXRα EC50 ± SEM
T1 construct: expressed in transfected cells; host or cells: HEK293T
T1 sequence (P19793 227-458 limits assumed): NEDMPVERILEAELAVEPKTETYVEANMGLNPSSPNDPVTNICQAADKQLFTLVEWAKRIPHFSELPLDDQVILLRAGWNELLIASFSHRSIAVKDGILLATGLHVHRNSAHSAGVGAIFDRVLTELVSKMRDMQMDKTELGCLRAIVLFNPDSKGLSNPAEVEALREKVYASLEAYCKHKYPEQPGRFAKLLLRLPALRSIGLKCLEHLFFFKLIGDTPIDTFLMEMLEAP
Procedure: (§1) The 20 top-ranked synthetic compounds were selected and tested in vitro for their modulatory activity on RXR (Supplementary Table 1). Compounds were tested in specific hybrid reporter gene assays for RXRα, RXRβ and RXRγ modulation[39]–[41]. These assays rely on a constitutively expressed hybrid receptor composed of the respective human RXR ligand binding domain and the DNA binding domain of the Gal4 receptor from yeast. A Gal4 responsive firefly luciferase was used as reporter gene and constitutively expressed renilla luciferase served as internal control for transfection efficiency and test compound toxicity. All selected compounds were tested at 50 µM concentration on RXRα and for active compounds (Supplementary Fig. 1), dose response curves were recorded on all three RXR subtypes.
(§2) The Gal4 hybrid reporter gene assays were conducted as reported previously[39]–[41]. pFA-CMV-based constructs comprising the ligand binding domain of the human nuclear receptor in question were used as expression plasmids for the chimera receptors. pFR-Luc (Stratagene) served as reporter plasmid and pRL-SV40 (Promega) for normalization of transfection efficiency and cell growth. The assays were conducted in 96-well format in HEK293T cells that were cultured as described previously[39]–[41]. Transient transfection was carried out using Lipofectamine LTX reagent (Invitrogen) according to the manufacturer’s protocol. After transfection and incubation with test compounds (12–14 h), cells were assayed for luciferase activity using Dual-Glo™ Luciferase Assay System (Promega) according to the manufacturer’s protocol. Luminescence was measured with an Infinite M200 luminometer (Tecan Deutschland GmbH). All hybrid assays were validated with reference agonists (PPARα: GW7647; PPARγ: pioglitazone; PPARδ: L165,041; LXRα/β: T0901317; FXR: GW4064; RXRs: bexarotene; RARs: tretinoin; VDR: calcitriol; CAR: CITCO; PXR: SR12813) which yielded EC50 values in agreement with literature. The assays were conducted in duplicates with at least two independent repeats and for active compounds repeated without hybrid receptor coding DNA for every test compound at the highest tested concentration to exclude unspecific effects.
(§3) Supplementary Figure 2. Dose-response curves for RXRα activation. Compounds were tested in specific hybrid reporter gene assays for RXRα, RXRβ and RXRγ modulation.^1–3 These assays rely on a constitutively expressed hybrid receptor composed of the respective human RXR ligand binding domain and the DNA binding domain of the Gal4 receptor from yeast. A Gal4 responsive firefly luciferase was used as reporter gene and constitutively expressed renilla luciferase served as internal control for transfection efficiency and test compound toxicity. […]

[2] = target: T2, human RXRβ ligand binding domain (Gal4 hybrid receptor) (Homo sapiens, UniProt P28702); assay: Gal4 hybrid reporter gene assay RXRβ; details: HEK293T cells, n ≥ 4, read-out: RXRβ EC50 ± SEM
T2 construct: expressed in transfected cells; host or cells: HEK293T
T2 sequence (P28702 296-529 limits assumed): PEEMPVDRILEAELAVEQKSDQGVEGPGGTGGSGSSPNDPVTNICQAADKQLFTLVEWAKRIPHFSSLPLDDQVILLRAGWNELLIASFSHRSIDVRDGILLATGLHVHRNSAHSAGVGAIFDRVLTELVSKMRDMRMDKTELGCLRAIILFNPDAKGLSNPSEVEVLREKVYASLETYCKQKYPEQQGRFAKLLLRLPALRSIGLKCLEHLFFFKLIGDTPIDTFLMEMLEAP
Procedure: as §1, §2, §3

[3] = target: T3, human RXRγ ligand binding domain (Gal4 hybrid receptor) (Homo sapiens, UniProt P48443); assay: Gal4 hybrid reporter gene assay RXRγ; details: HEK293T cells, n ≥ 4, read-out: RXRγ EC50 ± SEM
T3 construct: expressed in transfected cells; host or cells: HEK293T
T3 sequence (P48443 231-459 limits assumed): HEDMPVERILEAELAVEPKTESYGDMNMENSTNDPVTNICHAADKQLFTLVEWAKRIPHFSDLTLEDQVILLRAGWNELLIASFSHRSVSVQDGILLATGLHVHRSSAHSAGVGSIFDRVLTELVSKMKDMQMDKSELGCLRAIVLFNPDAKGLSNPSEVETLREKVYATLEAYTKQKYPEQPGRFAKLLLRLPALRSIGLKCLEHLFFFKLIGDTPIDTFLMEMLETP
Procedure: as §1, §2, §3

Row | Structure (SMILES) | EC50 [1] | EC50 [2] | EC50 [3]
1 | Cc1ccc(NC2=NC(=O)/C(=C/c3ccc(O)cc3)S2)cc1C [Compound 5] | 17 ± 1 µM | 14.7 ± 0.8 µM | 15 ± 0.6 µM
2 | CC(NC(=O)c1cccc(OCc2ccccc2)c1)c1ccccc1 (stereo not drawn) [Compound 6] | 16.5 ± 0.6 µM | 16.6 ± 0.2 µM | 16 ± 4 µM
3 | CC/C(=N/NC(=S)Nc1ccc(Cl)cc1Cl)c1ccc(O)cc1 [Compound 8] | 23.7 ± 0.7 µM | 25.6 ± 0.4 µM | 32 ± 3 µM
